# Assay results published in patent publication US20120283269A1, “Method and Compositions for Suppression of Aging” (HEALTH RESEARCH INC., priority 2009, published 2012).
# Entries after “also recorded” stand apart in the source; their conditions may differ.
# Assays:
# mTOR pathway = assay: Immunoblot for mTOR pathway (p-S6, p-4E-BP1, cyclin D1) in HT-p21 cells; format: cell-based, human
# Description: FIG. 3. […] Immunoblot. […] Immunoblot. […] Immunoblot was performed as described in Methods. c. […] After 3 days, cells were washed and incubated in fresh medium w/o drugs for an additional 7 days. […] On days 2, 3, 4, and 5 cells were lysed and protein content per well was measured.
# (§1) Cell lines and reagents. […] WI-38-Tert, WI-38 are fibroblasts immortalized by telomerase. […] Cells were grown in high glucose DMEM with 10% FC2 serum. WI-38-tert cells were grown in low glucose DMEM with 10% FCS. Rapamycin was obtained from LC Laboratories (Woburn, Mass.). IPTG (final concentration of 50 μg/ml) and FC2 were obtained from Sigma-Aldrich (St. Louis, Mo.).
# p53 = assay: Immunoblot for p53 and p21 in HT-p21-9 and HT-p21-GSE56 cells; format: cell-based, human
# Description: Control cells were left untreated (no IPTG). After 1 day, cells were lysed and immunoblot was performed. b. […] As a negative control, parental cells were treated with nutlin-3b (open squares).c-d. […] Control cells were left untreated (no IPTG). c. Morphology. After 3 days, cells were stained for beta-Gal. Scale bars—50 μm.d. Colony formation. After 3 days, cells were washed and incubated in fresh medium w/o drugs for an additional 9 days. Plates were stained with crystal violet and photographed. e. Proliferative potential (PP). After 3 days, HT-p21-GSE56 cells were washed and incubated in fresh medium w/o drugs. Cells were counted and results are shown as percent of IPTG alone.
# Cell lines and reagents. HT-p21-9 and HT-p21-a cells are derivatives of HT1080 human fibrosarcoma cells, where p21 expression can be turned on or off using isopropyl-thio-galactosidase (IPTG) (7, 16, 28, 29, 36). […] HT-p16 cells are derivatives of HT1080 cells in which p16 expression can be turned on or off using IPTG (16, 36). WI-38-Tert, WI-38 are fibroblasts immortalized by telomerase. HT-p21-GSE56 cells: p53 inhibiting peptide GSE56 (18) was introduced into HT1080 p21-9 cells via a retroviral vector LXSE (37). Cells were grown in high glucose DMEM with 10% FC2 serum. WI-38-tert cells were grown in low glucose DMEM with 10% FCS. Rapamycin was obtained from LC Laboratories (Woburn, Mass.). IPTG (final concentration of 50 μg/ml) and FC2 were obtained from Sigma-Aldrich (St. Louis, Mo.).
# Immunoblot analysis. Proteins were separated on 4-15% gradient Tris-HCl gels (Bio-Rad). The following antibodies were used: mouse anti-actin from Santa Cruz Biotechnology, rabbit anti-phospho-S6 (Ser240/244) and (Ser235/236), mouse anti-S6, mouse anti-phospho-p70 S6 kinase (Thr389), mouse anti-p21 and anti-p53, rabbit anti-phospho-4E-BP1 (Thr37/46) from Cell Signaling; mouse anti-4E-BP1 from Invitrogen, mouse anti-p53 (Ab-6) from Calbiochem.
# HT-p21-GSE56 cells = assay: Proliferation, senescence and proliferative potential of HT-p21-GSE56 cells (p53 function blocked); format: cell-based, human; conditions: 3 days, washed, fresh medium
# Description: as §1
# HT-p21-9 cells [1] = assay: Protein content per cell (cellular hypertrophy), IPTG-treated HT-p21-9 cells; format: cell-based, human; conditions: days 2-5
# Description: FIG. 3. […] Immunoblot. […] Immunoblot was performed as described in the methods for Example 1 below. b. Immunoblot. […] Immunoblot was performed as described in Methods. c. […] After 3 days, cells were washed and incubated in fresh medium w/o drugs for an additional 7 days. Cells were counted and are shown as percent of IPTG alone. d. […] Cells were treated with either IPTG alone (black bars) or IPTG plus rapamycin (white bars) or plus nutlin-3a (grey bars). On days 2, 3, 4, and 5 cells were lysed and protein content per well was measured. […] Cells were labeled with [^35S]methionine/cysteine as described in Methods for Example 1.
# HT-p21-9 cells [2] = conditions: HT-p21-9 cells; Huang et al. 2009; cited from earlier work
# [3] = IPTG plus 10 μM nutlin-3a, 24 hr
compound,measurement,setting,value
COc1ccc(C2=N[C@@H](c3ccc(Cl)cc3)[C@@H](c3ccc(Cl)cc3)N2C(=O)N2CCNC(=O)C2)c(OC(C)C)c1 [nutlin-3a],S6 phosphorylation,mTOR pathway; [3],inhibited S6 phosphorylation
same,phosphorylation of 4E-BP1,mTOR pathway; [3],partially inhibited
same,cyclin D1 levels,mTOR pathway; IPTG plus nutlin-3a,normalized elevated levels of cyclin D1
same,mTOR pathway,"mTOR pathway; presence or absence of IPTG, 18 hr",inhibited the mTOR pathway both in the presence and absence of IPTG
same,induction of p21 by IPTG in HT-p21-GSE56 cells,p53; 1 day,did not affect this induction
same,p53 levels in HT-p21-GSE56 cells,p53; 1 day,did not affect p53 levels in HT-p21-GSE56 cells
same,p53 levels in HT-p21 cells,p53; 1 day,induced p53 in HT-p21 cells
same,levels of p21 induced by IPTG,"p53; HT-p21 cells, IPTG plus compound",neither abrogated nor diminished the levels of p21; also recorded: did not prevent induction of p21 by IPTG
same,colony formation and proliferative potential (PP) in IPTG-treated HT-p21-GSE56 cells,HT-p21-GSE56 cells,did not preserve colony formation and proliferative potential (PP)
same,protein content per cell,HT-p21-9 cells [1],decreased the protein content per cell
same,cell cycle arrest on induction of p53 by nutlin-3a,HT-p21-9 cells [2],reversible cell cycle arrest (quiescence)
